Consider eleven molecules from patent US20240252677A1, “ONE-COMPONENT DELIVERY SYSTEM FOR NUCLEIC ACIDS” (The Trustees of the University of Pennsylvania, priority 2021, published 2024).

Structures are written as SMILES. Marks after values point to notes of the source that are not given here.

The nature of data set [1]: pKa measurements of individual IAJD molecules by titration. The note with it: ethanol saturated with NaCl, titrated with 0.1 M aqueous HCl, titration. The data set is classed as physicochemical. As for the experimental part: pKa measurements of individual IAJD Molecules was performed as follows. IAJD Molecules were first dissolved in ethanol (Sat. with NaCl) at a concentration of 1.5 mg/mL and the solution volume was 3 mL.
Then 0.1 M HCl solution was added to the above ethanol solution with an increment of 7.5 μL. The resulting pH after each addition of HCl solution was measured by an Thermo Scientific Orion Star A121 meter with Thermo Scientific Orion 8220BNWP pH probe. pKa was determined using the half equivalence point titration.

Data set [2] deals with HEK293T cells. Description: In vitro Luc-mRNA transfection, luciferase luminescence expression in HEK293T cells. More on the design: unit not given here. The note with it: n=3. The format is cell-based, human. As for the experimental part: In Vitro Transfection Activity of DNPs in Human Embrionic Kidney (HEK) 293T Cells: HEK293T cells were seeded into 96-well plates (20,000 cells/well/200 μL) and cultured for 24 h at 37° C. in 5% CO2 complete cell culture media. Screening experiments were performed with nonoptimized DNPs containing naked nucleoside-modified mRNA (Karikó, et al., Immunity 2005, 23, 165-175; Pardi, et al., Methods Mol. Biol. 2013, 969, 29-42), of molar mass 664,341 encoding firefly luciferase (mRNA-Luc). A constant concentration of mRNA-Luc of 125 ng/well was used. The transIT (TransIT-mRNA transfection Kit from Mirus Bio) and MC3-based LNPs (MC3: DLin-MC3-DMA, which is the FDA approved LNP for mRNA delivery) were used as positive controls for cell transfection at a concentration of mRNA-Luc of 125 ng/well, identical to that of the tested DNPs. Subsequently cells were cultured for 24 h, the medium was aspirated under reduced pressure by a glass pipette and cells were lysed with 30 μL/well of cell culture lysis reagent (Promega). The luminescence intensity corresponding to the luciferase protein expressed was characterized and analyzed.
In vitro mRNA Delivery: Human embryonic kidney (HEK) 293T cells (American Type Culture Collection) were cultured in Dulbecco's modified Eagle's medium (DMEM) supplemented with 10% inactivated fetal bovine serum (FBS) (Gemini Bio-Products), 2 mM L-glutamine and 100 U/mL penicillin/streptomycin (Life Technologies) (complete medium). For in vitro screening experiments, HEK293T cells were seeded into 96-well plates (20,000 cells/well/200 μL) and cultured for 24 h in at 37° C. and 5% CO2 in complete media. Cell were transfected with IAJDs with encapsulated naked nucleoside-modified mRNA encoding firefly luciferase (mRNA-Luc) with fixed concentration of mRNA-Luc, 125 ng per well. The transIT (TransIT®-mRNA Transfection Kit, Mirus Bio) was used as a positive control for cell transfection, accordingly per manufacturer protocol and added to cells at the concentration of mRNA-Luc, 125 ng per well, the same as for tested particles. Cells were further cultured for 24 h, then medium was aspirated, and cells were lysed with 30 μL/well of cell culture lysis reagent (Promega). For the characterization of luminescence intensity, 2.5 μL of the lysed cells was mixed with 10 μL of luciferase assay substrate and luminescence was analyzed using a MiniLumat LB 9506 luminometer (Berthold/EG&G; Wallac).
Luminescence characterization for in vitro transfection experiments was performed by determining the luminescence intensity for in vitro Luc-mRNA transfection experiments using a MiniLumat LB 9506 luminometer (Berthold/EG&G; Wallac).
For in vitro Luc-mRNA transfection screening experiments, human embryonic kidney 293 cells (HEK 293) were seeded into 96-well plates (20,000 cells/well/200 μL) and cultured for 18-20 hours at 37° C., 5% CO2 in complete Dulbecco's modified Eagle's medium (DMEM) supplemented with 2 mM L-glutamine (Life Technologies), 100 U/mL penicillin/streptomycin (Invitrogen) and 10% fetal bovine serum (FBS, Gemini Bio-Products). Cells were transfected with DNPs with encapsulated naked nucleoside-modified mRNA encoding firefly luciferase (Luc-mRNA) at constant concentration of Luc-mRNA, 125 ng per well. Luc-mRNA complexed with TransIT (TransIT®-mRNA Transfection Kit, Mirus Bio) or encapsulated in FDA approved MC3-based LNPs were used as positive controls for cell transfection, at the concentration of Luc-mRNA of 125 ng per well, the same as for tested DNPs. After transfection cells were further cultured at 37° C., 5% CO2 for 18-20 hours, then medium was aspirated and cells were lysed with luciferase cell culture lysis reagent (30 μL/well) (Promega, Madison, WI). […]

The test system of data set [3] is lung. Description: In vivo mRNA delivery, IVIS imaging of organs: lung. Also noted: species or system mice. The note with it: Table 14. As to the method:
(§1) The exposure time was 1 min.
(§2) Tissue luminescence signal was measured on the IVIS imaging system using an exposure time of 60 seconds using medium binning (binning=8) to ensure that the signal obtained was within operative detection range. […] Bioluminescence imaging was performed as described above.
(§3) Tissue luminescence signal was measured on the IVIS imaging system using a certain exposure time (60, 30 or 15 seconds) and medium binning (binning=8) to ensure that the signal obtained was within operative detection range.

Data set [4] has as its system spleen. Nature of the data set: In vivo mRNA delivery, IVIS imaging of organs: spleen. The note with it: for Organs with luminescence: spleen (weak/strong): Table 14; for Organs with luminescence: spleen: Table 17, mice, IVIS, 4-6 h after injection, intensity relative to other organs. Also noted: species or system mice; key to Organs with luminescence: spleen: strong: Strong meant the luminescence intensity in that organ was relatively high, compared to other organs; weak: Weak meant the luminescence intensity in that organ was relatively low, compared to other organs. As for the experimental part: as §1, §2, §3

Data set [5] is described as follows: Stability of DNPs by DLS after storage at 5° C. The data set is classed as physicochemical. Conditions: for pH Sample: DNPs: IAJD 4.0 mg/mL + Luc-mRNA 0.1 mg/mL, injection in acetate buffer pH 4.00; for PDI / Size (d, nm) / Original size distribution type (DLS curve): IAJD 4.0 mg/mL + Luc-mRNA 0.1 mg/mL; for PDI / Size (d, nm): acetate buffer; for Original size distribution type (DLS curve): before storage, acetate buffer pH 4.00. Also noted: key to Original size distribution type (DLS curve) / Size distribution type (DLS curve): U: DLS curve showed unimodal size distribution; B: DLS curve showed bimodal size distribution; M: DLS curve showed multimodal size distribution. As for the experimental part:
The stability of the DNPs as assayed by DLS. All the samples are prepared in acetate buffer. The stabilities of the constructs were ranked: Excellent (in bold)—the original sizes and distribution remains almost the same after storage; Good—the original relatively big sizes became smaller or broad size distribution became narrower; Not stable—the original relatively big sizes or broad size distribution remained almost the similar level, or the original relatively small sizes became bigger or narrow size distribution became broader.

Where [6] appears, read: Table 15, individual IAJD molecule.
Setting [7] is: HEK293T cells, Luc-mRNA 125 ng/well.
[8] abbreviates: Table 16, HEK 293T cells, 125 ng/well.

For the molecule `CCCCC(CC)COc1cc(COC(=O)CCCN2CCN(CCO)CC2)cc(OCC(CC)CCCC)c1` (centres unmarked) [IAJD 87, 3,5-Bis((2-ethylhexyl)oxy)benzyl 4-(4-(2-hydroxyethyl)piperazin-1-yl)butanoate], in data set [1] (setting [6]), the pKa came out at 6.49. Besides, the Luminescence in data set [2] (setting [7]) came to 33. Also, the “Organs with luminescence: lung (weak/strong)” value (“Organs … lung (weak/strong)” for short) in data set [3] (imaging 6 h after injection) is “Lung (weak),”. Moreover, the “Organs with luminescence: spleen (weak/strong)” value (“Organs … spleen (weak/strong)” below) in data set [4] (imaging 6 h after injection) was “spleen (strong)”.

`CCCCC(CC)COc1cc(COC(=O)CCCN2CCN(CCO)CC2)cc(OCC(CC)CCCC)c1OCC(CC)CCCC` (centres unmarked) [IAJD 97, 3,4,5-Tris((2-ethylhexyl)oxy)benzyl 4-(4-(2-hydroxyethyl)piperazin-1-yl)butanoate] showed a pKa in data set [1] (setting [6]) of 6.46. The Luminescence in data set [2] (setting [7]) was 342,016. Also, in data set [3] (imaging 5 h after injection), the “Organs … lung (weak/strong)” value is “Lung (weak),”. Further, the “Organs … spleen (weak/strong)” value in data set [4] (imaging 5 h after injection) is on record as “spleen (strong)”.

For the molecule `CCCCCCCCCCCCCCCCCOc1cc(COC(=O)CCCN2CCN(CCO)CC2)cc(OCCCCCCCCCCCCCCC)c1` [IAJD 152, 3-(Heptadecyloxy)-5-(pentadecyloxy)benzyl 4-(4-(2-hydroxyethyl)piperazin-1-yl)butanoate], the pKa in data set [1] (individual IAJD molecules) is 6.65. In addition, the Luminescence in data set [2] (setting [8]) was 88,202. Besides, in data set [5], the “pH Sample” value came out at 4.45 and the “Original size distribution type (DLS curve)” value is given as “(B)”. For the same molecule, in data set [5] (after 35 days at 5° C.), the “Size distribution type (DLS curve)” value is recorded as “(U)”; the PDI was 0.286; the “Size (d, nm)” value was 253 nm. The “Organs with luminescence: spleen” value in data set [4] is on record as “spleen (strong)”.

`CCCCCCCCCCCCCCOc1cc(COC(=O)CCCN2CCN(C)CC2)cc(OCCCCCCCCCCCCCC)c1` [IAJD 74, 3,5-Bis(tetradecyloxy)benzyl 4-(4-methylpiperazin-1-yl)butanoate] gave a pKa in data set [1] (setting [6]) of 6.32. Also, the Luminescence in data set [2] (setting [7]) is 3,926. Moreover, the “Organs … lung (weak/strong)” value in data set [3] (imaging 5 h after injection) is reported as “Lung (weak),”. Moreover, in data set [4] (imaging 5 h after injection), the “Organs … spleen (weak/strong)” value is “spleen (strong)”.

`CCCCCCCOC(=O)CCCCOc1cc(COC(=O)CCCN2CCN(C)CC2)cc(OCCCCC(=O)OCCCCCCC)c1` [IAJD 85, Diheptyl 5,5′-((5-(((4-(4-methylpiperazin-1-yl)butanoyl)oxy)methyl)-1,3-phenylene)bis(oxy)) dipentanoate] registered a pKa in data set [1] (setting [6]) of 6.21. Besides, in data set [2] (setting [7]), the Luminescence was 47,369. In data set [3] (imaging 5 h after injection), the “Organs … lung (weak/strong)” value is recorded as “Lung (weak),”. The “Organs … spleen (weak/strong)” value in data set [4] (imaging 5 h after injection) is “spleen (strong)”.

`CCCCC(CC)COC(=O)CCCCOc1cc(COC(=O)CCCN2CCN(CCO)CC2)cc(OCCCCC(=O)OCC(CC)CCCC)c1` (centres unmarked) [IAJD 95]: the pKa in data set [1] (setting [6]) was 6.33. The Luminescence in data set [2] (setting [7]) is 153,564. Further, the “Organs … lung (weak/strong)” value in data set [3] (imaging 6 h after injection) is given as “Lung (weak),”. For the same molecule, the “Organs … spleen (weak/strong)” value in data set [4] (imaging 6 h after injection) is given as “spleen (strong)”.

Regarding `CCCCCCCCCCCOc1cc(COC(=O)CCCN2CCN(CCO)CC2)cc(OCCCCCCCC)c1` [IAJD 113, 3-(Octyloxy)-5-(undecyloxy)benzyl 4-(4-(2-hydroxyethyl)piperazin-1-yl)butanoate], the pKa in data set [1] (individual IAJD molecules) is 6.52. The Luminescence in data set [2] (setting [8]) is on record as 78,118. For the same molecule, in data set [5], the “pH Sample” value is 4.48 and the “Original size distribution type (DLS curve)” value is listed as “(B)^b”. Moreover, in data set [5] (after 70 days at 5° C.), the “Size distribution type (DLS curve)” value is given as “(B)”; the PDI is 0.365; the “Size (d, nm)” value turned out to be 184 nm. In addition, the “Organs with luminescence: spleen” value in data set [4] is recorded as “Spleen (strong)”.

For the molecule `CCCCCCCCCCCCOc1cc(COC(=O)CCCN2CCN(C)CC2)cc(OCCCCCCCCCCCC)c1OCCCCCCCCCCCC` [IAJD 79, 3,4,5-Tris(dodecyloxy)benzyl 4-(4-methylpiperazin-1-yl)butanoate], in data set [1] (setting [6]), the pKa is 6.25. For the same molecule, the Luminescence in data set [2] (setting [7]) is given as 27,615. Also, the “Organs … lung (weak/strong)” value in data set [3] (imaging 6 h after injection) is “Lung (weak),”. Further, in data set [4] (imaging 6 h after injection), the “Organs … spleen (weak/strong)” value was “spleen (strong)”.

Turning to `CCCCCCCCCCCCCCCCCCOc1cc(COC(=O)CCCN2CCN(CCO)CC2)cc(OCCCCCCCCCCCCCCCCCC)c1` [IAJD 99, 3,5-Bis(octadecyloxy)benzyl 4-(4-(2-hydroxyethyl)piperazin-1-yl)butanoate], in data set [1] (setting [6]), the pKa was determined as 6.31. The Luminescence in data set [2] (setting [7]) is 87,433. For the same molecule, in data set [3] (imaging 6 h after injection), the “Organs … lung (weak/strong)” value is on record as “Lung (weak),”. The “Organs … spleen (weak/strong)” value in data set [4] (imaging 6 h after injection) is recorded as “spleen (strong)”.

`CCCCCCCCOc1cc(COC(=O)CCCN2CCN(C)CC2)cc(OCCCCCCCC)c1` [IAJD 88, 3,5-Bis(octyloxy)benzyl 4-(4-methylpiperazin-1-yl)butanoate] displayed a pKa in data set [1] (setting [6]) of 6.28. Further, the Luminescence in data set [2] (setting [7]) turned out to be 17. Moreover, the “Organs … lung (weak/strong)” value in data set [3] (imaging 6 h after injection) is listed as “Lung (weak),”. In addition, in data set [4] (imaging 6 h after injection), the “Organs … spleen (weak/strong)” value was “spleen (strong)”.

On to `CCCCCCCCCCCCCCCCOc1cc(COC(=O)CCCN2CCN(CCO)CC2)cc(OCCCCCCCCCCC)c1` [IAJD 120, 3-(Hexadecyloxy)-5-(undecyloxy)benzyl 4-(4-(2-hydroxyethyl)piperazin-1-yl)butanoate], for which, in data set [1] (individual IAJD molecules), the pKa came to 6.37. In addition, the Luminescence in data set [2] (setting [8]) is on record as 443,836. Also, in data set [5], the “pH Sample” value was 4.40 and the “Original size distribution type (DLS curve)” value is “(B)”. Also, in data set [5] (after 70 days at 5° C.), the “Size distribution type (DLS curve)” value is “(B)”; the PDI is 0.289; the “Size (d, nm)” value is reported as 177 nm. Also, in data set [4], the “Organs with luminescence: spleen” value is given as “Spleen (strong)”.

Usually pKa stands for the pH at which an ionisable group is half protonated.
